What all share (type): binding
What all share (settings): screened at 1 μM

Assay [1] concerns the target T1, EPHB6 (Homo sapiens, UniProt O15197).
T1 construct: made in house; host or cells: T7 phage in E. coli (BL21-derived) or HEK-293
Description: Kinome screen, EPHB6. How it is done: (§1) Kinase-tagged T7 phage strains were grown in parallel in 24-well blocks in an E. coli host derived from the BL21 strain. E. coli were grown to log-phase and infected with T7 phage from a frozen stock (multiplicity of infection=0.4) and incubated with shaking at 32° C. until lysis (90-150 minutes). The lysates were centrifuged (6,000×g) and filtered (0.2 μm) to remove cell debris. The remaining kinases were produced in HEK-293 cells and subsequently tagged with DNA for qPCR detection.
(§2) Streptavidin-coated magnetic beads were treated with biotinylated small molecule ligands for 30 minutes at room temperature to generate affinity resins for kinase assays. The liganded beads were blocked with excess biotin and washed with blocking buffer (SeaBlock (Pierce), 1% BSA, 0.05% Tween 20, 1 mM DTT) to remove unbound ligand and to reduce non-specific phage binding. […] Test compounds were prepared as 40× stocks in 100% DMSO and directly diluted into the assay. All reactions were performed in polypropylene 384-well plates in a final volume of 0.04 ml. […] The beads were then re-suspended in elution buffer (1×PBS, 0.05% Tween 20, 0.5 μM non-biotinylated affinity ligand) and incubated at room temperature with shaking for 30 minutes. The kinase concentration in the eluates was measured by qPCR.

The target in assay [2] is T2, PLK4 (Homo sapiens, UniProt O00444).
T2 construct: made in house; host or cells: T7 phage in E. coli (BL21-derived) or HEK-293
T2 sequence (O00444 whole entry): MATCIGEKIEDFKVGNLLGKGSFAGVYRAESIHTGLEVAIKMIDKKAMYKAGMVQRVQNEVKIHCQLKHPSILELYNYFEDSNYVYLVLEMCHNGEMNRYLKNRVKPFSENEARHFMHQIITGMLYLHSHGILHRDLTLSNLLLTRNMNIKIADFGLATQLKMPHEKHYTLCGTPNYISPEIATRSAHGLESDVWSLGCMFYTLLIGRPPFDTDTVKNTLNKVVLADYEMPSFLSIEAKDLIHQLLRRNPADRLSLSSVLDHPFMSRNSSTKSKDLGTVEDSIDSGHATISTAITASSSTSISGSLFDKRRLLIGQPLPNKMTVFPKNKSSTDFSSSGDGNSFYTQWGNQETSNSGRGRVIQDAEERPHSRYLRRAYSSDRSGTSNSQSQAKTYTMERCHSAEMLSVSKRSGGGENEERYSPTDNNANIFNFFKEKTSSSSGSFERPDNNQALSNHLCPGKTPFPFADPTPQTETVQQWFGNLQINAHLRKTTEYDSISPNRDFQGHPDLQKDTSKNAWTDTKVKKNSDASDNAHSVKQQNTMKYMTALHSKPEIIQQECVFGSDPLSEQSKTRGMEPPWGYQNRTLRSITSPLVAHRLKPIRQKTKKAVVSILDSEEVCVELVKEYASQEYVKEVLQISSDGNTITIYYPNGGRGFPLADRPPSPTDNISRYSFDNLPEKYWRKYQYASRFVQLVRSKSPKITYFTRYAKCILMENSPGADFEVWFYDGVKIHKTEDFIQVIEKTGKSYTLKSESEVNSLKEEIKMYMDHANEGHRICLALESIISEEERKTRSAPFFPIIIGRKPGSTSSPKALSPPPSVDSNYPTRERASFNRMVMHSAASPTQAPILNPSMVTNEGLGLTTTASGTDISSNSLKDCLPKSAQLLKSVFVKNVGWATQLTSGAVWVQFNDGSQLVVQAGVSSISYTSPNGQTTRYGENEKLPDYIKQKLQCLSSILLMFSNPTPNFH
Put plainly: Kinome screen, PLK4. How it is done: as §1, §2

The target of assay [3] is T3, CSF1R (Homo sapiens, UniProt P07333).
T3 construct: made in house; host or cells: T7 phage in E. coli (BL21-derived) or HEK-293
T3 sequence (P07333 20-972): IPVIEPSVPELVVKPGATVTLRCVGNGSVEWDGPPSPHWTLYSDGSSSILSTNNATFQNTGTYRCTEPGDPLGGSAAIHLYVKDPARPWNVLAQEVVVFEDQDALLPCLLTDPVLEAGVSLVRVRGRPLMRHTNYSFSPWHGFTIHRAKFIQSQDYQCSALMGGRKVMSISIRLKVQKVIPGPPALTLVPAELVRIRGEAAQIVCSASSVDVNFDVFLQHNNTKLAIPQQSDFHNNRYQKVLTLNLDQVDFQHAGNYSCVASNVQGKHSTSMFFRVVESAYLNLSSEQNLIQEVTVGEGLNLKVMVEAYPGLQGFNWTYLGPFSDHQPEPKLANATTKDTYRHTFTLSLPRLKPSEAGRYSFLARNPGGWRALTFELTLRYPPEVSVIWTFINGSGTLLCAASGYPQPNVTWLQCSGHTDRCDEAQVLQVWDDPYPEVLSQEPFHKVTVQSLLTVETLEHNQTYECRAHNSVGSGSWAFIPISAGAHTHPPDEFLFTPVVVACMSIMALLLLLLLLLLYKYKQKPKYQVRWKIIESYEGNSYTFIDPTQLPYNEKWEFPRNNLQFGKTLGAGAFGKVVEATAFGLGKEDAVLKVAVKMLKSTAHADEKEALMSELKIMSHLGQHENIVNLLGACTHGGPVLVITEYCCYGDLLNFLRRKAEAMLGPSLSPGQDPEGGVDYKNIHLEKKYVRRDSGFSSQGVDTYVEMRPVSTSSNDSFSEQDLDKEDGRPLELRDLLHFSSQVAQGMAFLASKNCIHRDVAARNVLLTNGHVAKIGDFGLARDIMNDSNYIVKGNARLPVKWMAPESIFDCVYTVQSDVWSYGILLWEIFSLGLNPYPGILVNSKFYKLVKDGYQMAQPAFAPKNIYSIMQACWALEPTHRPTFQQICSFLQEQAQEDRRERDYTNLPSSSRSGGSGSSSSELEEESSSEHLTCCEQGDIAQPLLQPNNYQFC
Description: Kinome screen, CSF1R. As for the experimental part: as §1, §2

Structures are written as SMILES.

Data on 1 compound can be found in patent US10493077B2, “Fused imidazo-piperidine JAK inhibitor compound” (THERAVANCE BIOPHARMA R&D IP, LLC, priority 2017, dated 2019).

T1 sequence (O15197 32-1021): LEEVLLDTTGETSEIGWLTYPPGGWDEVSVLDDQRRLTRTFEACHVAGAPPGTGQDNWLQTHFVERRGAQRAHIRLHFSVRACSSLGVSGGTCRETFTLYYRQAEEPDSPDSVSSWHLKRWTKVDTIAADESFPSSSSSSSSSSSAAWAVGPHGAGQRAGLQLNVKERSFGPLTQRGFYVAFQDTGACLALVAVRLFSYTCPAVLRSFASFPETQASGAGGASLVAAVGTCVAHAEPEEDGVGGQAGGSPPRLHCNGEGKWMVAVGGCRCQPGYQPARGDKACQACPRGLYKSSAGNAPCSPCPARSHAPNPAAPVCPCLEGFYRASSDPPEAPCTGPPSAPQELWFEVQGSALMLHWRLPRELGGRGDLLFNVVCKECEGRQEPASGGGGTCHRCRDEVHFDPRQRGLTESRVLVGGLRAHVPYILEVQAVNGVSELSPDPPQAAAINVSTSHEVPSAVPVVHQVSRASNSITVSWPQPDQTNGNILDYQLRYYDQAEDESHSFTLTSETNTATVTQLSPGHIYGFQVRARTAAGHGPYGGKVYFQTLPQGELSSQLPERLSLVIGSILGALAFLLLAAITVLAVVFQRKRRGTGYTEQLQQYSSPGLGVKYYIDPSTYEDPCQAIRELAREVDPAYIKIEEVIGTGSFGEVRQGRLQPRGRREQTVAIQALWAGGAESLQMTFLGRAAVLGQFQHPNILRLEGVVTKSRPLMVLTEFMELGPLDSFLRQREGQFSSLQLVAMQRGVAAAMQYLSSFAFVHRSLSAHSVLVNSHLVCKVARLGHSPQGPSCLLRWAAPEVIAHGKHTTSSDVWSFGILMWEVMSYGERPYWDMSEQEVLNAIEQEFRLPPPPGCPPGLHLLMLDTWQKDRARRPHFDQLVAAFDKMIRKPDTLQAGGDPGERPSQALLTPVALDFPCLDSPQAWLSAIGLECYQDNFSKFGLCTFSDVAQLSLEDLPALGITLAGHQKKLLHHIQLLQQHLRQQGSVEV

Usually inhibition stands for the percentage by which the read-out fell short of the control. Read a low inhibition as little suppression. Regarding `CCc1cc(O)c(F)cc1-c1cc(F)c2c(-c3nc4c([nH]3)CCN(C(=O)CN3CCOCC3)C4)n[nH]c2c1` [Compound 1, 1-(2-(6-(2-ethyl-5-fluoro-4-hydroxyphenyl)-4-fluoro-1H-indazol-3-yl)-1,4,6,7-tetrahydro-5H-imidazo[4,5-c]pyridin-5-yl)-2-morpholinoethan-1-one], the inhibition at 1 µM in assay [1] is 88%; in assay [2], 58%; in assay [3], 98%.
